Measured values: patent USRE49735E1 (BRISTOL-MYERS SQUIBB COMPANY, priority 2010, dated 2023)
Several values for one entry are separate records, joined by “and”; a condition that tells them apart may be missing. Equal entries are not always repeated.

What follows are compounds tested against human mGluR5A (Homo sapiens, UniProt P41594) (assay: mGluR5 FLIPR Assay). Conditions: positive modulator activity; HEK293 (ZF) cells with human mGluR5A and rat GLAST; Ca++ response to ~EC10 glutamate.
Assay type: cell-based
Method: HEK293 (ZF) cells stably transfected with human mGluR5A (pIRES neo) and the rat glutamate-aspartate transporter (GLAST; pIRES puro) are grown in a monolayer culture at 37° C. in 5% CO2 and fed with Minimum Essential Medium (MEM) supplemented with 10% dialysed fetal bovine serum. 24 hours prior to assay, cells are enzymatically dissociated from the culture flask (Trypsin, 0.25%), spun down (1000 rpm, 3 min), resuspended, and plated on Greiner black clear bottomed PDL-coated 384-well plates at a density of 30 thousand cells/well. […] Plates are incubated in dye at 37° C. in 5% CO2 for 60 minutes prior to delivery of test compounds in assay buffer. Test compounds are incubated with cells in the presence of dye for 10 minutes prior to being read on the FLIPR platform (Molecular Devices). A Ca^++ signal is induced in the assay plates via the delivery of an ˜EC10 concentration of the endogenous agonist 1-glutamate; images are acquired at 1 Hz for 100 seconds post-delivery of agonist stimulus. Positive modulator activity (i.e. the ability of test compounds to increase the Ca^++ response to a sub-maximal concentration of agonist) is normalized to a saturating concentration of a known mGluR5 PAM run in each assay plate. An EC50 concentration of test compounds is derived from 4-parameter logistic curve fits of transformed fluoresence data via proprietary software suite.

human mGluR5A, sequence (P41594 21-1180 isoform P41594-2): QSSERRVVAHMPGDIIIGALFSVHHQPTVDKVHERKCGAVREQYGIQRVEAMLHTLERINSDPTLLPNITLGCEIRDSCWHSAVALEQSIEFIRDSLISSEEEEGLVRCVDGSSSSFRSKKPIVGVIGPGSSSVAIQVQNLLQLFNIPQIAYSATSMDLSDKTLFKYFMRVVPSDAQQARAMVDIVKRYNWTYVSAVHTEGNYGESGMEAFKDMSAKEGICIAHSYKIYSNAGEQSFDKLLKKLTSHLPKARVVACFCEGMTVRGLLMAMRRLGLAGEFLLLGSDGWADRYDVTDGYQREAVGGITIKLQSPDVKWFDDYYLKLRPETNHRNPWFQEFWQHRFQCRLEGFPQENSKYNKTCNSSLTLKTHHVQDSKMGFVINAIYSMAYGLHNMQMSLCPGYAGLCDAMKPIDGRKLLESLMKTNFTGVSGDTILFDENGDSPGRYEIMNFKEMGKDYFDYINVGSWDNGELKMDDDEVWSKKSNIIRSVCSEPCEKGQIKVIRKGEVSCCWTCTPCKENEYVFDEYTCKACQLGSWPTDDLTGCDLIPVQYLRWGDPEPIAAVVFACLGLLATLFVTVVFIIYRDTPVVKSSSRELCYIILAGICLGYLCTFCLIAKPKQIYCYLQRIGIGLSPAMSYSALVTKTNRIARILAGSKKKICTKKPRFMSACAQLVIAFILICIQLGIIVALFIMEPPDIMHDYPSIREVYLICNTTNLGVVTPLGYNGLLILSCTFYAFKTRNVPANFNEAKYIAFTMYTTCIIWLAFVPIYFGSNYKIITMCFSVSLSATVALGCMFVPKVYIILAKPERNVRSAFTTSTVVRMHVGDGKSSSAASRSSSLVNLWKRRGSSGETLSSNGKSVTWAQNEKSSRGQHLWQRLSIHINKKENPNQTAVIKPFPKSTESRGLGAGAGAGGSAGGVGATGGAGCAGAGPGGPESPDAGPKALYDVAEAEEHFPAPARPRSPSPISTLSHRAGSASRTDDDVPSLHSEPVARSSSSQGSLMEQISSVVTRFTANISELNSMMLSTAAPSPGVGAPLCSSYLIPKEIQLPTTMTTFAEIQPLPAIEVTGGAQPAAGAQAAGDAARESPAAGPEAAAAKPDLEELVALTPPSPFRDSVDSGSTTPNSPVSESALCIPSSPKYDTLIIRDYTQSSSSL

Row | EC50 | SMILES
1 | > 1000 nM | O=C1N[C@@H](c2cccc(C#Cc3ccccc3)n2)[C@H](c2ccc(F)cc2)O1 (single isomer, unassigned) [Example 136]
2 | 100 to 1000 nM | C[C@@]1(c2cncc(C#Cc3ccccc3)c2)NC(=O)O[C@H]1c1ccccc1 (single isomer, unassigned) [Example 137]
3 | < 100 nM and 0.43 nM | C[C@]1(c2cncc(C#Cc3ccccc3)c2)NC(=O)O[C@@H]1c1ccccc1 (single isomer, unassigned) [Example 138]
4 | < 100 nM and 4.7 nM | O=C1N[C@H](c2cc(C#Cc3ccccc3)ccn2)[C@@H](c2ccc(F)cc2)O1 (single isomer, unassigned) [Example 297]
5 | 100 to 1000 nM and 232 nM | O=C1N[C@@H](c2cc(C#Cc3ccccc3)ccn2)[C@H](c2ccc(F)cc2)O1 (single isomer, unassigned) [Example 298]
6 | > 1000 nM | O=C1N[C@H](c2nc(C#Cc3ccccc3)ccc2F)[C@@H](c2ccccc2)O1 (single isomer, unassigned) [Example 305]
7 | > 3000 nM | O=C1N[C@@H](c2nc(C#Cc3ccccc3)ccc2F)[C@H](c2ccccc2)O1 (single isomer, unassigned) [Example 306]
8 | > 1000 nM | O=C1N[C@H](c2cccc(C#Cc3ccccc3)n2)[C@@H](c2ccccc2F)O1 (single isomer, unassigned) [Example 307]
9 | > 1000 nM | O=C1N[C@@H](c2cccc(C#Cc3ccccc3)n2)[C@H](c2ccccc2F)O1 (single isomer, unassigned) [Example 308]
10 | < 100 nM | O=C1N[C@H](c2cccc(C#Cc3ccccc3)n2)[C@@H](c2ccc(F)cc2F)O1 (single isomer, unassigned) [Example 309]
11 | > 1000 nM | O=C1N[C@@H](c2cccc(C#Cc3ccccc3)n2)[C@H](c2ccc(F)cc2F)O1 (single isomer, unassigned) [Example 310]
12 | < 100 nM | O=C1N[C@H](c2cccc(C#Cc3cccc(F)c3)n2)[C@@H](c2ccc(F)cc2F)O1 (single isomer, unassigned) [Example 311]
13 | > 3000 nM | O=C1N[C@@H](c2cccc(C#Cc3cccc(F)c3)n2)[C@H](c2ccc(F)cc2F)O1 (single isomer, unassigned) [Example 312]
14 | 100 to 1000 nM | O=C1N[C@H](c2cccc(C#Cc3ccccc3)n2)[C@@H](c2c(F)cc(F)cc2F)O1 (single isomer, unassigned) [Example 313]
15 | > 1000 nM | O=C1N[C@@H](c2cccc(C#Cc3ccccc3)n2)[C@H](c2c(F)cc(F)cc2F)O1 (single isomer, unassigned) [Example 314]
16 | > 1000 nM | O=C1N[C@H](c2cccc(C#Cc3ccccc3)n2)[C@@H](c2cc(F)cc(F)c2)O1 (single isomer, unassigned) [Example 315]
17 | > 1000 nM | O=C1N[C@@H](c2cccc(C#Cc3ccccc3)n2)[C@H](c2cc(F)cc(F)c2)O1 (single isomer, unassigned) [Example 316]
18 | > 1000 nM | O=C1N[C@@H](c2cncc(C#Cc3ccccc3)c2)[C@H](c2ccncn2)O1 (single isomer, unassigned) [Example 317]
19 | < 100 nM | O=C1N[C@H](c2cncc(C#Cc3ccccc3)c2)[C@@H](c2ccncn2)O1 (single isomer, unassigned) [Example 318]
20 | > 1000 nM | O=C1N[C@@H](c2cncc(C#Cc3ccccc3)c2)[C@@H](c2ccncn2)O1 (single isomer, unassigned) [Example 319]
21 | < 100 nM | O=C1N[C@H](c2cncc(C#Cc3ccccc3)c2)[C@H](c2ccncn2)O1 (single isomer, unassigned) [Example 320]
22 | > 1000 nM | O=C1N[C@@H](c2cncc(C#Cc3ccccc3)c2)[C@H](c2ccnnc2)O1 (single isomer, unassigned) [Example 321]
23 | < 100 nM | O=C1N[C@H](c2cncc(C#Cc3ccccc3)c2)[C@@H](c2ccnnc2)O1 (single isomer, unassigned) [Example 322]
24 | > 1000 nM | O=C1N[C@@H](c2cncc(C#Cc3ccccc3)c2)[C@@H](c2ccnnc2)O1 (single isomer, unassigned) [Example 323]
25 | < 100 nM | O=C1N[C@H](c2cncc(C#Cc3ccccc3)c2)[C@H](c2ccnnc2)O1 (single isomer, unassigned) [Example 324]
26 | > 1500 nM | O=C1N[C@@H](c2cncc(C#Cc3ccccc3)c2)[C@H](c2cc(Cl)ccc2Cl)O1 (single isomer, unassigned) [Example 325]
27 | > 3000 nM | O=C1N[C@H](c2cncc(C#Cc3ccccc3)c2)[C@@H](c2cc(Cl)ccc2Cl)O1 (single isomer, unassigned) [Example 326]
28 | > 1000 nM | O=C1N[C@H](c2cncc(C#Cc3ccccc3)c2)[C@H](c2cc(Cl)ccc2Cl)O1 (single isomer, unassigned) [Example 327]

Row | EC50 | SMILES
29 | > 1000 nM | O=C1N[C@@H](c2cncc(C#Cc3ccccc3)c2)[C@@H](c2cc(Cl)ccc2Cl)O1 (single isomer, unassigned) [Example 328]
30 | > 1000 nM | O=C1N[C@@H](c2cncc(C#Cc3ccccc3)c2)[C@H](c2cccc(Cl)c2Cl)O1 (single isomer, unassigned) [Example 329]
31 | < 100 nM | O=C1N[C@H](c2cncc(C#Cc3ccccc3)c2)[C@@H](c2cccc(Cl)c2Cl)O1 (single isomer, unassigned) [Example 330]
32 | > 1000 nM | O=C1N[C@H](c2cncc(C#Cc3ccccc3)c2)[C@H](c2cccc(Cl)c2Cl)O1 (single isomer, unassigned) [Example 331]
33 | > 1000 nM | O=C1N[C@@H](c2cncc(C#Cc3ccccc3)c2)[C@@H](c2cccc(Cl)c2Cl)O1 (single isomer, unassigned) [Example 332]
34 | > 1000 nM | COc1ccccc1[C@@H]1OC(=O)N[C@H]1c1cncc(C#Cc2ccccc2)c1 (single isomer, unassigned) [Example 333]
35 | > 3000 nM | COc1ccccc1[C@H]1OC(=O)N[C@@H]1c1cncc(C#Cc2ccccc2)c1 (single isomer, unassigned) [Example 334]
36 | > 1000 nM | COc1ccccc1[C@@H]1OC(=O)N[C@@H]1c1cncc(C#Cc2ccccc2)c1 (single isomer, unassigned) [Example 335]
37 | > 1000 nM | COc1ccccc1[C@H]1OC(=O)N[C@H]1c1cncc(C#Cc2ccccc2)c1 (single isomer, unassigned) [Example 336]
38 | > 1000 nM | C[C@@]1(c2cncc(C#Cc3ncccc3F)c2)NC(=O)O[C@H]1c1ccc(F)cc1 (single isomer, unassigned) [Example 343]
39 | < 100 nM | C[C@@]1(c2cncc(C#Cc3ncccc3F)c2)NC(=O)O[C@H]1c1ccc(F)cc1 (single isomer, unassigned) [Example 344]
40 | > 1000 nM | O=C1N[C@@H](c2cncc(C#Cc3ccccc3)c2)[C@H](c2cccs2)O1 (single isomer, unassigned) [Example 345]
41 | < 100 nM and 13.3 nM | O=C1N[C@H](c2cncc(C#Cc3ccccc3)c2)[C@@H](c2cccs2)O1 (single isomer, unassigned) [Example 346]
42 | > 1000 nM | O=C1N[C@H](c2cc(C#Cc3cccc(Cl)c3)ccn2)[C@@H](c2ccc(F)cc2)O1 (single isomer, unassigned) [Example 347]
43 | > 1000 nM | O=C1N[C@@H](c2cc(C#Cc3cccc(Cl)c3)ccn2)[C@H](c2ccc(F)cc2)O1 (single isomer, unassigned) [Example 348]
44 | 100 to 1000 nM and 305 nM | O=C1N[C@H](c2cc(C#Cc3ccc(Cl)cc3)ccn2)[C@@H](c2ccc(F)cc2)O1 (single isomer, unassigned) [Example 349]
45 | 100 to 1000 nM | O=C1N[C@H](c2cc(C#Cc3ccccc3Cl)ccn2)[C@@H](c2ccc(F)cc2)O1 (single isomer, unassigned) [Example 351]
46 | > 1000 nM | O=C1N[C@@H](c2cc(C#Cc3ccccc3Cl)ccn2)[C@H](c2ccc(F)cc2)O1 (single isomer, unassigned) [Example 352]
47 | < 100 nM | O=C1N[C@H](c2cc(C#Cc3ccccc3F)ccn2)[C@@H](c2ccc(F)cc2)O1 (single isomer, unassigned) [Example 353]
48 | 100 to 1000 nM and 392 nM | O=C1N[C@@H](c2cc(C#Cc3ccccc3F)ccn2)[C@H](c2ccc(F)cc2)O1 (single isomer, unassigned) [Example 354]
49 | < 100 nM | O=C1N[C@H](c2cc(C#Cc3cccc(F)c3)ccn2)[C@@H](c2ccc(F)cc2)O1 (single isomer, unassigned) [Example 355]
50 | 100 to 1000 nM | O=C1N[C@@H](c2cc(C#Cc3cccc(F)c3)ccn2)[C@H](c2ccc(F)cc2)O1 (single isomer, unassigned) [Example 356]
51 | < 100 nM | O=C1N[C@H](c2cc(C#Cc3ccc(F)cc3)ccn2)[C@@H](c2ccc(F)cc2)O1 (single isomer, unassigned) [Example 357]
52 | > 1000 nM | O=C1N[C@@H](c2cc(C#Cc3ccc(F)cc3)ccn2)[C@H](c2ccc(F)cc2)O1 (single isomer, unassigned) [Example 358]
53 | 100 to 1000 nM | O=C1N[C@@H](c2cncc(C#Cc3ccccc3)c2)[C@H](c2ccc(Cl)cc2)O1 (single isomer, unassigned) [Example 359]
54 | < 100 nM and 2 nM | O=C1N[C@H](c2cncc(C#Cc3ccccc3)c2)[C@@H](c2ccc(Cl)cc2)O1 (single isomer, unassigned) [Example 360]
55 | > 1000 nM | O=C1N[C@@H](c2cncc(C#Cc3ccccc3)c2)[C@H](c2cccc(Cl)c2)O1 (single isomer, unassigned) [Example 361]
